Data: US8937096B2, “Use of benzo-fused heterocyle sulfamide derivatives for the treatment of mania and bipolar disorder” (priority 2005, dated 2015)
Blank lines part the entries; values can stand above or below the molecule they belong to.

Experiments:
[1] = system: stressed and non-stressed animals; assay: Resident/Intruder Assay (Chronic Social Stress Assay); type: in vivo; parameters: Locomotor Mean ± SD / Rearing Mean ± SD / Sniffing Down Mean ± SD / Sniffing Up Mean ± SD: unit not given here; settings: 10 mg/kg p.o.
Description: The behavioral resident/intruder assay is used to screen compounds for anti-depressant-like activity.

Wistar rats = assay: Chronic Mild Stress Model (Chronic); type: in vivo, rat; settings: stressed animals; i.p. once daily
Description: In the chronic mild stress (CMS) model rats subjected to a variety of mild stressors for a prolonged period of time show, among other behavioral, biochemical and physiological impairments, a substantial decrease in their responsiveness to rewarding stimuli. This deficit is usually monitored by a decrease in the consumption of the 1% sucrose solution, but can also be seen in other tests, such as place preference conditioning or intracranial self-stimulation. Since the subsensitivity to reward appears to reflect anhedonia (inability to experience pleasure), which is a core symptom of major depressive disorders, the CMS procedure may serve as a suitable research tool in studies into the mechanisms of antidepressant action.
Male Wistar rats were brought into the laboratory two months before the start of the experiment. Except as described below, the animals were singly housed with food and water freely available, and were maintained on a 12-h light/dark and in a constant temperature (22±2° C.) and humidity (50±5%) conditions.
The animals were first trained to consume a 1% sucrose solution; training consisted of eight 1 h baseline tests in which sucrose was presented, in the home cage, following 14 h food and water deprivation; the sucrose intake was measured by weighing pre-weighed bottles containing the sucrose solution, at the end of the test. Subsequently, sucrose consumption was monitored, under similar conditions, at weekly intervals throughout the whole experiment.
On the basis of their sucrose intakes in the final baseline test, the animals were divided into two matched groups. One group of animals was subjected to the chronic mild stress procedure for a period of 7 consecutive weeks. […]
All results obtained in this study were analyzed by multiple analyses of variance with three between-subjects factors (stress/control, drug treatments and successive sucrose tests). […]

[2] = Median toxic dose (TD50) / toxic doses of Compound #8 and reference drugs; settings: rat, in vivo
[3] = system: hippocampal kindled seizures; assay: Rat Hippocampal Kindling Test (Interruption of Kindled State); type: in vivo; settings: reference drugs; suppression at doses associated with toxicity
Method: In the present rapid hippocampal kindling model adult male Sprague-Dawley rats (300-400 g) were surgically implanted with bipolar electrodes placed in the hippocampus. […] One week later, the rats received 2-3 supra-threshold stimulations delivered every 30 min before treatment with test compound, to ensure stability of the behavioral seizure stage and after-discharge duration. Fifteen minutes after the last stimulation, a single dose of vehicle or test compound was administered i.p. (intraperitoneally). After 15 min, each rat was then stimulated every 30 min for 3 to 4 h. After each stimulation, individual seizure scores and after-discharge durations were recorded. The group mean±SEM were calculated for each parameter. Eight rats per dose and a minimum of four doses were used to establish an ED50 value. Efficacy was measured as the ability of a compound to modify the seizure score (severity of spread) and after-discharge duration (ADD; excitability) of the generalized seizures.
Thus, according to the theories presented in current literature (Ghaemi, S. N., Boiman, E. E., and Goodwin, F. K., Soc. of Bio. Psychiatry, (1999), vol. 45, pp 137-144; Stoll, A. L., and Severus, W. E., Harvard Rev. Psychiatry, July/August (1996), Vol. 4, No. 2, pp 77-89) a decrease in seizure score and/or ADD may also be predictive of the ability of a test compound to treat the cycling associated with bipolar disorder.

[4] = system: amygdala kindled seizures; settings: i.p.; cited from earlier work
[5] = system: hippocampal kindled seizures; settings: rat, in vivo; cited from earlier work

melting point: 100 to 101 °C
SMILES: NS(=O)(=O)NCC1CCc2ccccc2O1 (stereo not drawn)

SMILES: CN(C)CCCN1c2ccccc2CCc2ccccc21 [Imipramine, imipramine, reference compound]
Forced Swim Test: Immobility during 5 min: Week 5 Mean ± SD ([1]; non-stressed): 125.3 ± 50.1 | Sucrose Intake Mean ± SD Week 3 ([1]; non-stressed): 87.9 ± 2.7 | Sucrose Intake Mean ± SD Week 4 ([1]; non-stressed): 89.7 ± 5.3 | Sucrose Intake Mean ± SD Week 5 ([1]; non-stressed): 91.0 ± 3.7 | Locomotor Mean ± SD ([1]; non-stressed, week 1): 8162.8 ± 929.9 | Rearing Mean ± SD ([1]; non-stressed, week 1): 51.5 ± 12.6 | Sniffing Down Mean ± SD ([1]; non-stressed, week 1): 25.8 ± 4.9 | Rearing Mean ± SD ([1]; non-stressed, week 5): 42.1 ± 2.9 | Sniffing Down Mean ± SD ([1]; non-stressed, week 5): 26.4 ± 5.2 | Sniffing Up Mean ± SD ([1]; non-stressed, week 5): 37.5 ± 2.1 | Forced Swim Test: Immobility during 5 min: Week 5 Mean ± SD ([1]; stressed): 157.5 ± 71.6 | Sucrose Intake Mean ± SD Week 3 ([1]; stressed): 70.5 ± 19.5 | Sucrose Intake Mean ± SD Week 4 ([1]; stressed): 78.3 ± 15.1 | Sucrose Intake Mean ± SD Week 5 ([1]; stressed): 73.6 ± 19.4 | Locomotor Mean ± SD ([1]; stressed, week 1): 6037.8 ± 1382.8 | Rearing Mean ± SD ([1]; stressed, week 1): 30 ± 9.5 | Sniffing Down Mean ± SD ([1]; stressed, week 1): 14.4 ± 4.4 | Sniffing Up Mean ± SD ([1]; stressed, week 1): 27.5 ± 7.9 | Locomotor Mean ± SD ([1]; stressed, week 5): 5642.8 ± 998.6 | Rearing Mean ± SD ([1]; stressed, week 5): 27.8 ± 7.4 | Sniffing Down Mean ± SD ([1]; stressed, week 5): 17.3 ± 3.4 | Sniffing Up Mean ± SD ([1]; stressed, week 5): 24.3 ± 5.1 | treatment time after which increases in sucrose intake in stressed animals reached statistical significance vs Week 0 (Wistar rats): four weeks

SMILES: CCCC(CCC)C(=O)O [Valproic acid, reference compound]
toxic doses [2]: > 300 mg/kg | seizure activity in the hippocampal kindling model [3]: significantly suppressed seizure activity

SMILES: Nc1nnc(-c2cccc(Cl)c2Cl)c(N)n1 [lamotrigine]
ADD reduced by [4]: 62% | ED50 (amygdala kindled seizures) [4]: 25 mg/kg | amygdala kindled seizure score [4]: ~2 | protection against hippocampal kindled seizures [5]: unable to protect
